The values below come from patent US6506901B2, “Substituted 2-(S)-hydroxy-3-(piperidin-4-yl-methylamino)-propyl ethers and substituted 2-aryl-2-(R)-hydroxy-1-(piperidin-4-yl-methyl)-ethylamine β-3 adrenergic receptor agonists” (Wyeth, priority 2000, dated 2003).

As usually defined, the pEC50 is the negative decadic logarithm of the EC50, by convention in mol/L. Higher therefore signals a small EC50.

pEC50: −log10 of the molar value.

The experiment addresses T1, human β3 receptors (Homo sapiens, UniProt P13945).
T1 construct: Full length β3 AR clones (402 amino acids) containing the last 6 amino acids of hβ3—AR; expressed in transfected cells; host or cells: CHO cells
The experiment in a line: cAMP response (SPA) in CHO cells expressing cloned human β3 adrenergic receptor. In kind it is cell-based. The conditions noted are these: for pEC50: CHO cells expressing human β3 receptor, cAMP, 30 min incubation, 10^−9 M to 10^−5 M; for IA(β3): maximal response compared to the maximal response of isoproterenol at 10^−5 M. How it is done:
Binding to the receptors was measured in Chinese Hamster ovary (CHO) cells that were transfected with adrenergic receptors.
Cloning of Human β3-AR Genomic DNA: cDNA was constructed by ligating four polymerase chain reaction (PCR) products using the following primers: an ATG-NarI fragment, sense primer 5′-[…]3′ and anti-sense primer 5′ […]3′; a NarI-AccI fragment, 5′ […]3′ as sense and 5′ […]3′ as anti-sense primer; an AccIi-StyI fragment, sense primer 5′ […]3′ and anti-sense primer 5′ […]3′ and a StyI-TAG fragment, with sense primer 5′ […]3′ and anti-sense primer 5′ […]3′. The corresponding primer sequences are described in Mantzoros, C. […] The four fragments are ligated into a pUC 18 plasmid (Gibco-BRL) and sequenced.
CHO cells were grown in 24-well tissue culture plates in Dulbecco's Modified Eagle Media with 10% fetal bovine serum, MEM non-essential amino acids, Penicillin-Streptompycin and Geneticin. […] Isoproterenol (10^−5 M) was used as an internal standard for comparison of activity. Cells were incubated at 37° C. on a rocker for 30 min with the β3 cells and 15 min for β1 and β2 cells. Incubation was stopped with the addition of 0.2N HCl and neutralized with 2.5N NaOH. The plates, containing the cells and neutralized media, were stored at −20 degrees celsius until ready to test for cAMP using the SPA test kit (Amersham).
Data Analysis and Results: Data collected from the SPA test procedure were analyzed as per cent of the maximal isoproterenol response at 10^−5 M. Activity curves were plotted using the SAS statistical and graphics software.

T1 sequence (P13945 whole entry): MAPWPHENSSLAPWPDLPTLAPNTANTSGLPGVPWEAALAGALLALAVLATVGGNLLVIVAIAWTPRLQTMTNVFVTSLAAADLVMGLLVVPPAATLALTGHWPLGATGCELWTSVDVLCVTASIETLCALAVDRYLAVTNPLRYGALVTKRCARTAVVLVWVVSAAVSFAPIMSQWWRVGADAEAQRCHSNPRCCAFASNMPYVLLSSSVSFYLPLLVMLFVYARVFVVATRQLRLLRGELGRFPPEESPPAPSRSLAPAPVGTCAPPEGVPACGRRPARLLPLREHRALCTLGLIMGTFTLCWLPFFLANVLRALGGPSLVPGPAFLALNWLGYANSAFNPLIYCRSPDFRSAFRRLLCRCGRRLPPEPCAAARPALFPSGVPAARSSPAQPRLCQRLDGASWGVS

On to `CCCCCCCCN1CCC(CNC[C@H](O)COc2cccc3[nH]c4ccccc4c23)CC1` [Example 27], for which the pEC50 was 5.99 and the “IA(β3)” value is recorded as 0.51.

Regarding `CC(C)S(=O)(=O)N1CCC(CNC[C@H](O)COc2cccc3[nH]c4ccccc4c23)CC1` [Example 32, (2S)-1-(9H-Carbazol-4-yloxy)-3-{[1-(ropane-2-sulfonyl)-piperidin-4-ylmethyl]-amino}-propan-2-ol], the negative-log EC50 (pEC50) was 6.91 and the “IA(β3)” value worked out at 0.8.

For `COc1ccc(S(=O)(=O)N2CCC(CNC[C@H](O)COc3cccc4[nH]c5ccccc5c34)CC2)cc1` [Example 33, (2S)-1-(9H-Carbazol-4-yloxy)-3-{[1-(4-methoxy-benzenesulfonyl)-piperidin-4-ylmethyl]-amino}-propan-2-ol], the negative-log EC50 (pEC50) was 6.85 and the “IA(β3)” value was found to be 0.68.

With `COc1ccc(S(=O)(=O)N2CCC(CNC[C@H](O)COc3c(Br)ccc4[nH]c5ccccc5c34)CC2)cc1` [Example 34, (2S)-1-(3-Bromo-9H-carbazol-4-yloxy)-3-{[1-(4-methoxy-benzenesulfonyl)-piperidin-4-ylmethyl]-amino}-propan-2-ol], the negative logarithm of the EC50 (pEC50) is 5.15 and the “IA(β3)” value is given as 0.36.

For the compound `COc1ccc(S(=O)(=O)N2CCC(CNC[C@H](O)COc3ccc(O)cc3)CC2)cc1` [Example 37, 4-((2S)-2-Hydroxy-3-{[1-(4-methoxy-benzenesulfonyl)-piperidin-4-ylmethyl]-amino}-propoxy)-phenol], the pEC50 was 6.42 and the “IA(β3)” value was found to be 1.04.

`COc1ccc(S(=O)(=O)N2CCC(CNC[C@H](O)COc3cccc4c3-c3ccccc3C4=O)CC2)cc1` [Example 38, 4-((2S)-2-Hydroxy-3-{[1-(4-methoxy-benzenesulfonyl)-piperidin-4-ylmethyl]-amino}-propoxy)-fluoren-9-one]: the pEC50 was 6.44 and the “IA(β3)” value was found to be 0.36.

On to `COc1ccc(S(=O)(=O)N2CCC(CNC[C@H](O)COc3cccc4[nH]c(=O)[nH]c34)CC2)cc1` [Example 39, 4-((2S)-2-Hydroxy-3-{[1-(4-methoxy-benzenesulfonyl)-piperidin-4-ylmethyl]-amino}-propoxy)-1,3-dihydro-benzoimidazol-2-one], for which the negative-log EC50 (pEC50) is 7.52 and the “IA(β3)” value was 0.81.

For `COc1ccc(S(=O)(=O)N2CCC(CNC[C@H](O)COc3cccc4[nH]c(C)cc34)CC2)cc1` [Example 40, 4-((2S)-2-Hydroxy-3-{[1-(4-methoxy-benzenesulfonyl)-piperidin-4-ylmethyl]-amino}-propoxy)-2-methyl-1H-indole], the negative logarithm of the EC50 (pEC50) is 6.31 and the “IA(β3)” value came to 0.23.

Consider `COc1ccc(S(=O)(=O)N2CCC(CNC[C@H](O)COc3cccc4c3CC(=O)N4)CC2)cc1` [Example 41, 4-((2S)-3-{[1-(4-Methoxy-benzenesulfonyl)-piperidin-4-ylmethyl]-amino}-2-hydroxy-propoxy)-1,3-dihydro-indol-2-one], for which the pEC50 was 7.02 and the “IA(β3)” value came out at 0.65.

For the compound `COc1ccc(S(=O)(=O)N2CCC(CNC[C@H](O)COc3cccc4[nH]c(=O)[nH]c34)CC2)cc1OC` [Example 42, 4-((2S)-2-Hydroxy-3-{[1-(3,4-dimethoxy-benzenesulfonyl)-piperidin-4-ylmethyl]-amino}-propoxy)-1,3-dihydro-benzoimidazol-2-one], the negative logarithm of the EC50 (pEC50) was 6.82 and the “IA(β3)” value is 0.69.

On to `COc1ccc(S(=O)(=O)N2CCC(CNC[C@H](O)COc3ccc(O)cc3)CC2)cc1OC` [Example 43, 4-((2S)-2-Hydroxy-3-{[1-(3,4-dimethoxy-benzenesulfonyl)-piperidin-4-ylmethyl]-amino}-propoxy)-phenol], for which the pEC50 is 6.06 and the “IA(β3)” value amounted to 0.68.

In the case of `COc1ccc(S(=O)(=O)N2CCC(CNC[C@H](O)COc3cccc4c3CC(=O)N4)CC2)cc1OC` [Example 44, 4-((2S)-3-{[1-(3,4-Dimethoxy-benzenesulfonyl)-piperidin-4-ylmethyl]-amino}-2-hydroxy-propoxy)-1,3-dihydro-indol-2-one], the negative-log EC50 (pEC50) was 6.38 and the “IA(β3)” value was found to be 0.46.

Consider `O=[N+]([O-])c1ccc(S(=O)(=O)N2CCC(CNC[C@H](O)COc3ccc(O)cc3)CC2)cc1` [Example 45, 4-((2S)-2-Hydroxy-3-{[1-(4-nitro-benzenesulfonyl)-piperidin-4-ylmethyl]-amino}-propoxy)-phenol], for which the negative-log EC50 (pEC50) is 6.21 and the “IA(β3)” value is listed as 1.

Regarding `O=C1Cc2c(cccc2OC[C@@H](O)CNCC2CCN(S(=O)(=O)c3ccc(OC(F)(F)F)cc3)CC2)N1` [Example 46, 4-((2S)-2-Hydroxy-3-{[1-(4-trifluoromethoxy-benzenesulfonyl)-piperidin-4-ylmethyl]-amino}-propoxy)-1,3-dihydro-indol-2-one], the negative logarithm of the EC50 (pEC50) was 6.65 and the “IA(β3)” value worked out at 0.81.

As for `O=S(=O)(c1ccc(OC(F)(F)F)cc1)N1CCC(CNC[C@H](O)COc2ccc(O)cc2)CC1` [Example 47, 4-((2S)-2-Hydroxy-3-{[1-(4-trifluoromethoxy-benzenesulfonyl)-piperidin-4-ylmethyl]-amino}-propoxy)-phenol], the negative logarithm of the EC50 (pEC50) was 6.60 and the “IA(β3)” value came out at 0.7.

Turning to `Cn1cnc(S(=O)(=O)N2CCC(CNC[C@H](O)COc3ccc(O)cc3)CC2)c1` [Example 49, 4-((2S)-2-Hydroxy-3-{[1-(1-methyl-1H-imidazole-4-sulfonyl)-piperidin-4-ylmethyl]-amino}-propoxy)-phenol], the negative logarithm of the EC50 (pEC50) was 5.63 and the “IA(β3)” value is reported as 0.4.

On to `CCOC(=O)c1cccc(NC(=O)N2CCC(CNC[C@H](O)COc3ccc(O)cc3)CC2)c1` [Example 52, 3-[(4-{[(2S)-2-Hydroxy-3-(4-hydroxy-phenoxy)-propylamino]-methyl}-piperidine-1-carbonyl)-amino]-benzoic Acid Ethyl Ester], for which the negative logarithm of the EC50 (pEC50) was 6.52 and the “IA(β3)” value is listed as 0.9.

Take `O=C(NC1CCCCC1)N1CCC(CNC[C@H](O)COc2cccc3[nH]c4ccccc4c23)CC1` [Example 56, 4-{[(2S)-3-(9H-Carbazol-4-yloxy)-2-hydroxy-propylamino]-methyl}-piperidine-1-carboxylic Acid Cyclohexylamide]: the negative-log EC50 (pEC50) is 6.96 and the “IA(β3)” value is listed as 0.53.

In the case of `O=C(NC1CCCCC1)N1CCC(CNC[C@H](O)COc2ccc(O)cc2)CC1` [Example 57, 4-{[(2S)-2-Hydroxy-3-(4-hydroxy-phenoxy)-propylamino]-methyl}-piperidine-1-carboxylic Acid Cyclohexylamide], the pEC50 is 5.50 and the “IA(β3)” value stood at 0.46.

Take `Cc1cc2cccc(OC[C@@H](O)CNCC3CCN(S(=O)(=O)c4ccc(NC(=O)Nc5ccccc5)cc4)CC3)c2[nH]1` [Example 61, 1-[4-(4-{[(2S)-2-Hydroxy-3-(2-methyl-1H-indol-7-yloxy)-propylamino]-methyl}-piperidine-1-sulfonyl)-phenyl]-3-phenyl-urea]: the pEC50 is 7.01 and the “IA(β3)” value stood at 0.4.

As for `O=C(Nc1ccccc1)Nc1ccc(S(=O)(=O)N2CCC(CNC[C@H](O)COc3cccc4[nH]c(=O)[nH]c34)CC2)cc1` [Example 62, 1-[4-(4-{[2-Hydroxy-3-(2-oxo-2,3-dihydro-1H-benzoimidazol-4-yloxy)-propylamino]-methyl}-piperidine-1-sulfonyl)-phenyl]-3-phenyl-urea], the pEC50 was 8.00 and the “IA(β3)” value came to 0.68.

Take `CS(=O)(=O)Nc1cc([C@@H](O)CNCC2CCN(S(=O)(=O)c3ccc(NC(=O)Nc4ccccn4)cc3)CC2)ccc1O` [Example 67, N-{2-Hydroxy-5-[(1R)-1-hydroxy-2-({1-[4-(3-pyridin-2-yl-ureido)-benzenesulfonyl]-piperidin-4-ylmethyl}-amino)-ethyl]-phenyl}-methanesulfonamide]: the pEC50 is 7.70 and the “IA(β3)” value is on record as 1.2.

For `CCCCCCCCNC(=O)Nc1ccc(S(=O)(=O)N2CCC(CNCC(O)COc3cccc4[nH]c(C(N)=O)cc34)CC2)cc1` (stereo not drawn) [Example 71, 4-[2-Hydroxy-3-({1-[4-(3-octyl-ureide)-benzenesulfonyl]-piperidin-4-ylmethyl}-amino)-propoxy]-1H-indole-2-carboxylic Acid Amide], the pEC50 is 7.02 and the “IA(β3)” value worked out at 0.6.

Take `CCCCCCCCNC(=O)Nc1ccc(S(=O)(=O)N2CCC(CNC[C@H](O)c3ccc(O)c(NS(C)(=O)=O)c3)CC2)cc1` [Example 73, (R)-N-{2-Hydroxy-5-[1-hydroxy-2-({1-[4-(3-octyl-ureido)-benzenesulfonyl]-piperidin-4-ylmethyl}-amino)-ethyl]-phenyl}-methanesulfonamide]: the pEC50 was 8.22 and the “IA(β3)” value was 1.
